Patent publication US11933794B2, “Method for determining factor Xa inhibitor dosage” (Good Biomarker Sciences B.V., priority 2017, dated 2024)

What was measured:
coagulation status = experiment: Coagulation status of patients by routine coagulation test (activated partial thromboplastin time, APTT); type: in vivo, human
Experimental: Four subjects in need of […] are selected, including three patients with thrombosis, and one patient with coronary artery disease.
Coagulation status of patients 1-4 is determined by a routine coagulation test (activated partial thromboplastin time, APTT).

[1] = test system: clot growth in hemophilia plasma (deficient in Factor IX and Factor VIII); experiment: Clot growth experiments comparing normal and hemophilia plasma; type: biochemical, human; details: hemophilia plasmas; in contrast to what was found in normal plasma
Text: For clot growth, this now appears the key mechanism. In contrast, in text books, activation of Factor VIII is indicated to be a thrombin action.
(§1) The clot growth rate assay monitors over time fibrin clot development in a nonstirred thin layer of platelet-free plasma activated by immobilized tissue factor. For this, the Thrombodynamics Basic Kit can be used as an in vitro diagnostic kit used to perform measurements of spatiotemporal dynamics of fibrin clot formation in blood plasma samples. The kit consists of measurement cuvettes, activating inserts and reagents for samples treatment. The kit is obtainable from HemaCore intended for professional use in the laboratory on the Thrombodynamics Analyzer T-2. See, for further details, Soshitova et al. (Blood Coagul. Fibrinolysis, 2012 September; 23(6):498-507).

[2] = test system: fibrin clot formation in blood plasma; experiment: Clot growth rate assay (Thrombodynamics) in plasma samples with defined Factor VIII levels; type: biochemical, human; details: for inhibition of clot growth rate: FIG. 1
Text: as §1
Five plasma samples were prepared containing 50%, 75%, 100%, 150%, or 200% Factor VIII, respectively. The samples were prepared using FVIII-deficient plasma, normal plasma from healthy subjects, and FVIII concentrate and Factor VIII levels were measured and confirmed by the one-stage clotting assay. Each of these five plasma samples was subdivided into five subsamples to which apixaban was added to a total concentration of 0 μM, 0.1 μM, 0.2 μM, 0.35 μM, or 0.5 μM in plasma, respectively. The 25 subsamples were subjected to a clot growth assay as described above, and the clot growth rate was measured at 2500 seconds after start of growth.
For each different Factor VIII concentration (i.e., 50%, 75%, 100%, 150% or 200%), five bars are shown representing subsamples to which apixaban was added to a different total concentration, i.e., 0 μM, 0.1 μM, 0.2 μM, 0.35 μM, or […], respectively.

Q: COc1ccc(-n2nc(C(N)=O)c3c2C(=O)N(c2ccc(N4CCCCC4=O)cc2)CC3)cc1 [apixaban] was tested. Which “coagulation status (APTT): risk of blood clotting or bleeding events” value (shortened to “coagulation status (APTT): risk”) (coagulation status; Patient 1 (thrombosis), Factor VIII 80% of standard plasma, 5 mg per day) did it give?
A: Its value is “no increased risk of blood clotting or bleeding events”.

Q: What about the “coagulation status (APTT): risk” value (coagulation status; Patient 4 (coronary artery disease), Factor VIII 240% of standard plasma, 5 mg per day) of the same molecule?
A: The value was “increased risk of blood clotting events”.

Q: And the “inhibition of clot growth” value [1]?
A: The value was “did not inhibit clot growth”.

Q: And the “inhibition of clot growth rate” value ([2]; Factor VIII level below 100%, lowest apixaban concentration (0.1 μM in plasma))?
A: The value was “close to maximal inhibition”.

Q: What about the “inhibition of clot growth rate” value ([2]; Factor VIII levels above 100%, 0.1 μM apixaban) of the same molecule?
A: The value was “not be very effective”.

Q: And the “inhibition of clot growth rate” value ([2]; Factor VIII levels above 100%, 0.35 μM apixaban in plasma)?
A: Its value is “substantial inhibition”.

Q: For CN1CCc2nc(C(=O)N[C@@H]3C[C@@H](C(=O)N(C)C)CC[C@@H]3NC(=O)C(=O)Nc3ccc(Cl)cn3)sc2C1 [edoxaban], which “coagulation status (APTT): risk” value (coagulation status; Patient 2 (thrombosis), Factor VIII 95% of standard plasma, 20 mg per day) is on record?
A: The value was “increased risk of bleeding events”.

Q: How did the “inhibition of clot growth” value [1] turn out when O=C(NC[C@H]1CN(c2ccc(N3CCOCC3=O)cc2)C(=O)O1)c1ccc(Cl)s1 [rivaroxaban] was run?
A: Its value is “did not inhibit clot growth”.

Q: And the “effects in the clot growth rate assay compared with apixaban” value ([2]; FIG. 2)?
A: Its value is “closely mimic the effects of apixaban”.
